Results as given in US6384070B2, “Indole derivatives useful as endothelin receptor antagonists” (Pfizer Inc., priority 1996, dated 2002).

Tests used:
[1] = molecular target: T1, cloned human ETA receptor (Homo sapiens, UniProt P25101); experiment: Test A binding assay: competition with 125I-ET-1, binding to ETA receptors; details: [125I]Tyr13 ET-1 displacement, 37° C., 2 hours
T1 sequence (P25101 21-427): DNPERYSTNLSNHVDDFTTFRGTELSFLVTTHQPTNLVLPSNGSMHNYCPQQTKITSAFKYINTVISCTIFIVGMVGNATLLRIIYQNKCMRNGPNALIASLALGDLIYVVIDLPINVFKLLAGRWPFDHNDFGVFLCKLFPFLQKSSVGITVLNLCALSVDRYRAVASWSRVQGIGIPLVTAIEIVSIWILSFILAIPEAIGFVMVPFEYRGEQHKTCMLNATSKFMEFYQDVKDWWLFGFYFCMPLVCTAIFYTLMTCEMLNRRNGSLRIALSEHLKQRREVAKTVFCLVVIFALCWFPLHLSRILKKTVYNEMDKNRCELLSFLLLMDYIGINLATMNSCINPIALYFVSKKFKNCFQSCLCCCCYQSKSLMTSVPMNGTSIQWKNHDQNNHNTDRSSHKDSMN
Description: Competition between test compounds and ^125I-ET-1 binding to human endothelin receptors is determined as follows.
25 ul of a 30 pM solution of [^125I]Tyr^13 ET-1 (specific activity 2,200 Ci/mM) is mixed with 25 μl samples of test compound (final concentrations in the range 0.1 nM-50.000 nM). 200 μl of a solution containing cloned human ETA receptor (0.75 pmoles receptor protein/ml). 50 mM Tris, 0.5 mM CaCl2, 0.1% human serum albumen. 0.1% bacitracin. 0.05% Tween 20, pH 7.4 is added. The solution is mixed at 37° C. for 2 hours. After the incubation, the unbound ligand is separated from receptor bound ligand by filtration with a Brandel cell harvester, followed by three washes of buffer. Filter papers are counted for radioactivity, and the IC50 (the concentration of test compound at which 50% of the radio-labelled compound is unbound) determined for the concentration range tested.

neointimal formation = details: S. Douglas et al. Circ Res, 75, 1994; cited from earlier work

| SMILES | IC50 [1] [nM] | melting point | other results |
| --- | --- | --- | --- |
| COc1cc(C)ccc1S(=O)(=O)NC(=O)C(c1ccc2c(c1)OCO2)c1cn(C)c2cc(C(=O)O)ccc12 (centres unmarked) [Example 17, 3-{1-(1,3-benzodioxol-5-yl)-2-[(2-methoxy-4-methylphenyl)sulfonamido]-2-oxoethyl}-1-methyl-1H-6-indolecarboxylic acid] | < 500 | – | – |
| COc1cc(C)ccc1S(=O)(=O)NC(=O)C(c1ccc2c(c1)OCO2)c1cn(C)c2cc(CO)ccc12 (centres unmarked) [Example 65, 3-{1-(1,3-Benzodioxol-5-yl)-2-[(2-methoxy-4-methylphenyl)sulfonamido]-2-oxoethyl}-6-(hydroxymethyl)-1-methyl-1H-indole] | < 500 | – | – |
| Cn1cc(C(C(=O)O)c2ccc3c(c2)OCO3)c2cc(Br)ccc21 (centres unmarked) [Example 68, 2-(1,3-Benzodioxol-5-yl)-2-(5-bromo-1-methyl-1H-3-indolyl)acetic acid] | – | 191 to 193 °C | – |
| COc1cc(C)ccc1S(=O)(=O)NC(=O)C(c1ccc2c(c1)OCO2)c1cn(C)c2ccc(Br)cc12 (centres unmarked) [Example 79, 3-{1-(1,3-Benzodioxol-5-yl)-2-[(2-methoxy-4-methylphenyl)sulfonamido]-2-oxoethyl}-5-bromo-1-methyl-1H-indole] | – | 145 to 150 °C | – |
| COc1cc(C)ccc1S(=O)(=O)NC(=O)C(c1ccc2c(c1)OCO2)c1cn(C)c2cc(F)ccc12 (centres unmarked) [Example 83] | < 500 | – | – |
| COc1cc(C)ccc1S(=O)(=O)NC(=O)C(c1ccc2c(c1)OCO2)c1cn(C)c2cc(Br)ccc12 (centres unmarked) [Example 85, 3-{1-(1,3-benzodioxol-5-yl)-2-[(2-methoxy-4-methylphenyl)sulfonamido]-2-oxoethyl}-6-bromo-1-methyl-1H-indole] | – | 145 to 150 °C (dec.) | – |
| COc1cc(C)ccc1S(=O)(=O)NC(=O)C(c1cc(OC)c2c(c1)OCO2)c1cn(C)c2cc(Br)ccc12 (centres unmarked) [Example 92, 6-Bromo-3-{1-(7-methoxy-1,3-benzodioxol-5-yl)-2-[(2-methoxy-4-methylphenyl)sulfonamido]-2-oxoethyl}-1-methyl-1H-indole] | – | 235 °C (dec.) | – |
| Cc1ccc(S(=O)(=O)NC(=O)C(c2cc3c(cc2Cl)OCO3)c2cn(C)c3cc(CO)ccc23)cc1 (centres unmarked) [Example 99, 3-{1-(6-Chloro-1,3-benzodioxol-5-yl)-2-[(4-methylphenyl)sulfonamido]-2-oxoethyl}-6-(hydroxymethyl)-1-methyl-1H-indole] | – | 207 to 209 °C | – |
| COc1cc(C)ccc1S(=O)(=O)NC(=O)C(c1ccc2c(c1)OCO2)c1cn(C)c2cc(C(C)=O)ccc12 (centres unmarked) [Example 101, 6-Acetyl-3-{1-(1,3-benzodioxol-5-yl)-2-[(2-methoxy-4-methylphenyl)sulfonamido]-2-oxoethyl}-1-methyl-1H-indole] | < 500 | – | – |
| COCCn1cc(C(C(=O)NS(=O)(=O)c2ccc(C)cc2OC)c2ccc3c(c2)OCO3)c2ccc(C(N)=O)cc21 (centres unmarked) [Example 109, 3-{1-(1,3-benzodioxol-5-yl)-2-[(4-methyl-2-methoxyphenyl)sulfonamido]-2-oxoethyl}-1-(2-methoxyethyl)-1H-6-indolecarboxamide] | < 500 | – | – |
| CCCOc1ccc2c(c1)[C@@H](c1ccc(OC)cc1OCC(=O)O)[C@H](C(=O)O)[C@H]2c1ccc2c(c1)OCO2 [SB-209670] | – | – | reduction in neointimal formation relative to control animals (neointimal formation): 50% |
